What is called IC50 is the concentration that inhibits the measured activity by half.

Where only a bound is given, the exact number is not on record here.

The experiment addresses PIK3CA (human) (UniProt P42336). The experiment in a line: Assessment of PIK3CA Kinase Activity.

Chain of PIK3CA (human) (P42336 whole entry, looked up): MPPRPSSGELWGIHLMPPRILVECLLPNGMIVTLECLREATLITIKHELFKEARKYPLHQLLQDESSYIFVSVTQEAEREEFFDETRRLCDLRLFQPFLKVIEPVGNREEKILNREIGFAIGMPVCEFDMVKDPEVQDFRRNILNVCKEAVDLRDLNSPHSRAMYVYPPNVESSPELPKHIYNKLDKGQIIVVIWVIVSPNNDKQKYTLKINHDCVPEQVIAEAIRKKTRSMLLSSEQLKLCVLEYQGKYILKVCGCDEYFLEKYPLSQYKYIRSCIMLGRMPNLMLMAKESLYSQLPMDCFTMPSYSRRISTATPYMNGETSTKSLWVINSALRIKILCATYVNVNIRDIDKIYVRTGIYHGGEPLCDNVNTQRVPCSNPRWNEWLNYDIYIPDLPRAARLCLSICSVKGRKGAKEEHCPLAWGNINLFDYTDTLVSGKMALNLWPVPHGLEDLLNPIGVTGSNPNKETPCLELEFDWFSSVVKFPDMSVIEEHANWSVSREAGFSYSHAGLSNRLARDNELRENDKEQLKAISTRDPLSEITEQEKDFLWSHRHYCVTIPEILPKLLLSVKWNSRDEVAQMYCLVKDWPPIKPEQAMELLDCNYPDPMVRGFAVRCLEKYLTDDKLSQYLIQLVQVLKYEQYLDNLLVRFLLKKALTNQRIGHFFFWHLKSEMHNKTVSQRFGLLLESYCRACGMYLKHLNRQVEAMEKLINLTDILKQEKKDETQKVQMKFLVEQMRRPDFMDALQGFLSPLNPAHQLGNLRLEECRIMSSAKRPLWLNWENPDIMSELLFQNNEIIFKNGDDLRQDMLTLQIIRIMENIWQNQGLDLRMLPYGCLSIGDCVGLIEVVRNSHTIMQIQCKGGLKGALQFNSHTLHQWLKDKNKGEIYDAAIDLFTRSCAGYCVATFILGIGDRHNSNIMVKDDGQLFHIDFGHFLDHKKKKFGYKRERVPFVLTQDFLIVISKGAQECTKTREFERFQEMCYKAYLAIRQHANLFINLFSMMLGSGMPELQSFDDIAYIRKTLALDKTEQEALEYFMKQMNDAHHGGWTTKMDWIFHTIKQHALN

For `COCCc1c(C)nc(N)nc1N1CCOc2c(C)cc(-c3cnc4sc(N)nc4c3)cc2C1`, the IC50 is not above 0.1 µM.

`Cc1cc(-c2cnc(Cl)c(NS(C)(=O)=O)c2)cc2c1OCCN(c1nc(N)nc(C)c1C(C)C)C2` came in with an IC50 not above 0.1 µM. As for `Cc1cnc(N2CCOc3c(C)cc(-c4cnc5sc(N)nc5c4)cc3C2)nc1N`, the figure is 0.1 to 0.5 µM; as for `COCc1nc(C)c(C(C)C)c(N2CCOc3c(C)cc(-c4cnc5sc(N)nc5c4)cc3C2)n1`, not above 0.1 µM; as for `Cc1cc(-c2cnc3sc(N)nc3c2)cc2c1OCCN(c1nc(N)nc(C)c1CC1CC1)C2`, not above 0.1 µM. In the case of `COCCc1c(C)nc(CN2CCCC2)nc1N1CCOc2c(C)cc(-c3cnc4sc(N)nc4c3)cc2C1`, the IC50 is not above 0.1 µM. As for `Cc1cc(-c2cnc3sc(N)nc3c2)cc2c1OCCN(c1nc(CN(C)C)nc(Cl)c1C(C)C)C2`, the figure is not above 0.1 µM. With `Cc1ncc(C(C)C)c(N2CCOc3c(C)cc(-c4cnc5sc(N)nc5c4)cc3C2)n1` the figure was not above 0.1 µM. Compound `Cc1cc(-c2cnc3sc(N)nc3c2)cc2c1OCCN(c1nc(CO)nc(C)c1C(C)C)C2` showed an IC50 not above 0.1 µM. `COc1cncc(-c2cc(C)c3c(c2)CN(c2nc(N)nc(C)c2C(C)C)CCO3)c1`: the IC50 was not above 0.1 µM.

Regarding `CCNCc1nc(C)c(C(C)C)c(N2CCOc3c(C)cc(-c4cnc5sc(N)nc5c4)cc3C2)n1`, the IC50 was not above 0.1 µM. With `CSc1nc(Cl)c(C(C)(C)O)c(N2CCOc3c(C)cc(-c4cnc5sc(N)nc5c4)cc3C2)n1` the figure was 0.1 to 0.5 µM; with `CNCc1nc(C)c(C(C)C)c(N2CCOc3c(C)cc(-c4cnc5sc(N)nc5c4)cc3C2)n1`, not above 0.1 µM. With `Cc1cc(-c2cnc(Cl)c(NS(C)(=O)=O)c2)cc2c1OCCN(c1ncc(C(F)(F)F)c(N)n1)C2` the figure was not above 0.1 µM. With `CC(=O)NCc1nc(C)c(C(C)C)c(N2CCOc3c(C)cc(-c4cnc5sc(N)nc5c4)cc3C2)n1` the figure was not above 0.1 µM; with `Cc1cc(-c2cnc3sc(N)nc3c2)cc2c1OCCN(c1ncc(F)c(N)n1)C2`, not above 0.1 µM; with `Cc1cc(-c2cccnc2)cc2c1OCCN(c1nc(N)nc(C)c1C(C)C)C2`, not above 0.1 µM.

`CCc1nc(CN(C)C)nc(N2CCOc3c(C)cc(-c4cnc5sc(N)nc5c4)cc3C2)c1C(C)C` showed an IC50 not above 0.1 µM.

For `Cc1nc2ncc(-c3cc(C)c4c(c3)CN(c3nc(CNCC(F)F)nc(C)c3C(C)C)CCO4)cc2[nH]1`, the IC50 is not above 0.1 µM. In the case of `Cc1cc(-c2cnc3sc(N)nc3c2)cc2c1OCCN(c1nc(CN(C)C)ncc1CC(F)(F)F)C2`, the IC50 was 0.1 to 0.5 µM. The compound `Cc1cc(-c2cnc3sc(N)nc3c2)cc2c1OCCN(c1nc(NCCN(C)C)nc(C)c1C(C)C)C2` yielded an IC50 not above 0.1 µM.

Turning to `Cc1cc(-c2cnc3sc(N)nc3c2)cc2c1OCCN(c1ncccc1C#N)C2`, the IC50 was in the range of 0.1 to 0.5 µM. As for `Cc1cc(-c2cnc3sc(N)nc3c2)cc2c1OCCN(c1ncc(C(N)=O)c(N)n1)C2`, the figure is 0.1 to 0.5 µM; as for `CCc1c(C)nc(N)nc1N1CCOc2c(C)cc(-c3cnc4sc(N)nc4c3)cc2C1`, not above 0.1 µM. With `CCc1nc(N)nc(N2CCOc3c(C)cc(-c4cnc5sc(N)nc5c4)cc3C2)c1C(C)C` the figure was not above 0.1 µM. With `Cc1cc(-c2cnc3sc(N)nc3c2)cc2c1OCCN(c1nc(S(C)(=O)=O)nc(C)c1C(C)C)C2` the figure was not above 0.1 µM; with `Cc1cc(-c2ccc(N)nc2)cc2c1OCCN(c1nc(N)nc(C)c1C(C)C)C2`, 0.1 to 0.5 µM. `Cc1cc(-c2cnc3nc[nH]c3c2)cc2c1OCCN(c1nc(N)nc(C)c1C(C)C)C2` returned an IC50 not above 0.1 µM. With `Cc1cc(-c2ccn[nH]2)cc2c1OCCN(c1nc(N)nc(C)c1C(C)C)C2` the figure was not above 0.1 µM; with `Cc1cc(-c2cnc3sc(N)nc3c2)cc2c1OCCN(c1nc(N)ccc1C#N)C2`, not above 0.1 µM; with `Cc1cc(-c2cnc3sc(N)nc3c2)cc2c1OCCN(c1nc(CN)nc(C)c1C(C)C)C2`, not above 0.1 µM. With `COCCc1c(C)nc(C)nc1N1CCOc2c(C)cc(-c3cnc4sc(N)nc4c3)cc2C1` the figure was not above 0.1 µM; with `Cc1cc(-c2cnc3sc(N)nc3c2)cc2c1OCCN(c1nc(C(C)N)nc(C)c1C(C)C)C2` (stereo unspecified), not above 0.1 µM; with `Cc1cc(-c2cnc(Cl)c(NS(C)(=O)=O)c2)cc2c1OCCN(c1ncc(C#N)c(N)n1)C2`, not above 0.1 µM. With `COc1ncc(-c2cc(C)c3c(c2)CN(c2nc(N)nc(C)c2C(C)C)CCO3)cn1` the figure was not above 0.1 µM; with `Cc1cc(-c2cnc3sc(N)nc3c2)cc2c1OCCN(c1ncnc(C)c1C(C)C)C2`, not above 0.1 µM; with `C=C(C)c1c(C)nc(N)nc1N1CCOc2c(C)cc(-c3cnc4sc(N)nc4c3)cc2C1`, not above 0.1 µM. On to `Cc1cc(-c2cnc3sc(N)nc3c2)cc2c1OCCN(c1nc(CN(C)C)nc(C)c1C(C)C)C2`, for which the IC50 was not above 0.1 µM.

`Cc1cc(-c2nnc(N)s2)cc2c1OCCN(c1ncnc(C)c1C(C)C)C2` registered an IC50 not above 0.1 µM. With `Cc1cc(-c2cnc(Cl)c(NS(C)(=O)=O)c2)cc2c1OCCN(c1nc(CNCCF)nc(C)c1C(C)C)C2` the figure was not above 0.1 µM.

As for `COc1ncc(-c2cc(C)c3c(c2)CN(c2nc(N)nc(C)c2C(C)C)CCO3)cc1NS(C)(=O)=O`, the IC50 is not above 0.1 µM. `COCC(C)c1c(C)nc(C)nc1N1CCOc2c(C)cc(-c3cnc4sc(N)nc4c3)cc2C1` (stereo unspecified) returned an IC50 not above 0.1 µM.

`CCn1cc(-c2cc(C)c3c(c2)CN(c2nc(N)nc(C)c2C(C)C)CCO3)cn1` yielded an IC50 of 0.1 to 0.5 µM. With `Cc1cc(-c2ccc3c(c2)OCO3)cc2c1OCCN(c1nc(N)nc(C)c1C(C)C)C2` the figure was not above 0.1 µM; with `Cc1cc(-c2cnc3sc(N)nc3c2)cc2c1OCCN(c1nc([C@@H]3C[C@@H](F)CN3)nc(C)c1C(C)C)C2`, not above 0.1 µM. As for `Cc1cc(-c2cnc3sc(N)nc3c2)cc2c1OCCN(c1nc(N3CCN(C)CC3)nc(C)c1C(C)C)C2`, the figure is not above 0.1 µM; as for `Cc1cc(-c2cnc(Cl)c(NS(C)(=O)=O)c2)cc2c1OCCN(c1nc(N)ncc1C(F)(F)F)C2`, not above 0.1 µM; as for `Cc1cc(-c2cnc3sc(N)nc3c2)cc2c1OCCN(c1nc(C3CNC3)nc(C)c1C(C)C)C2`, not above 0.1 µM. With `Cc1nc2ccc(-c3cc(C)c4c(c3)CN(c3ncnc5ccc(I)cc35)CCO4)cc2[nH]1`, the IC50 was not above 0.1 µM. As for `COCCc1nc(C)c(C(C)C)c(N2CCOc3c(C)cc(-c4cnc5sc(N)nc5c4)cc3C2)n1`, the figure is not above 0.1 µM.

Consider `Cc1cc(-c2cnc3sc(N)nc3c2)cc2c1OCCN(c1nc(N)nc(C)c1C(C)C)C2`, for which the IC50 was not above 0.1 µM. With `Cc1cc(-c2cnc3sc(N)nc3c2)cc2c1OCCN(c1nc(N3CC(O)C3)nc(C)c1C(C)C)C2` the figure was not above 0.1 µM; with `Cc1cc(-c2cnc(Cl)c(NS(C)(=O)=O)c2)cc2c1OCCN(c1nc(CNCC(F)F)nc(C)c1C(C)C)C2`, not above 0.1 µM; with `Cc1cc(-c2cnc3sc(N)nc3c2)cc2c1OCCN(c1nc(C3CCCN3C)nc(C)c1C(C)C)C2` (stereo unspecified), not above 0.1 µM.

As for `Cc1cc(-c2cnc3sc(N)nc3c2)cc2c1OCCN(c1ccc(C#N)cn1)C2`, the IC50 lay in the range of 0.1 to 0.5 µM. As for `Cc1cc(-c2cnc3sc(N)nc3c2)cc2c1OCCN(c1nc(C(C)O)nc(C)c1C(C)C)C2` (stereo unspecified), the figure is not above 0.1 µM; as for `Cc1cc(-c2cnc3sc(N)nc3c2)cc2c1OCCN(c1nc(C3CC3)nc(C)c1C(C)C)C2`, not above 0.1 µM. With `Cc1cc(-c2cnc3sc(N)nc3c2)cc2c1OCCN(c1nc(CN3CCC(F)(F)C3)nc(C)c1C(C)C)C2` the figure was not above 0.1 µM; with `Cc1cc(-c2cnc(Cl)c(NS(=O)(=O)C(F)(F)F)c2)cc2c1OCCN(c1nc(N)nc(C)c1C(C)C)C2`, not above 0.1 µM; with `C#CCc1c(C)nc(C)nc1N1CCOc2c(C)cc(-c3cnc4sc(N)nc4c3)cc2C1`, not above 0.1 µM. With `COCCc1c(C)ncnc1N1CCOc2c(C)cc(-c3cnc4sc(N)nc4c3)cc2C1` the figure was not above 0.1 µM; with `CCNC(=O)c1nc(C)c(C(C)C)c(N2CCOc3c(C)cc(-c4cnc5sc(N)nc5c4)cc3C2)n1`, not above 0.1 µM. With `C=C(C)c1c(C)ncnc1N1CCOc2c(C)cc(-c3cnc4sc(N)nc4c3)cc2C1`, the IC50 is not above 0.1 µM. As for `Cc1cc(-c2nnc(N)s2)cc2c1OCCN(c1ncnc(C)c1C)C2`, the figure is not above 0.1 µM; as for `Cc1cc(-c2cnc3sc(N)nc3c2)cc2c1OCCN(c1ncnc(Cl)c1C(C)(C)O)C2`, 0.1 to 0.5 µM. Compound `C=Cc1c(C)ncnc1N1CCOc2c(C)cc(-c3cnc4sc(N)nc4c3)cc2C1` yielded an IC50 not above 0.1 µM.

On to `COc1ccc(-c2cc(C)c3c(c2)CN(c2nc(N)nc(C)c2C(C)C)CCO3)cc1OC`, for which the IC50 was not above 0.1 µM. With `Cc1cc(-c2cnc3sc(N)nc3c2)cc2c1OCCN(c1nc(CNCC(F)F)nc(C)c1C(C)C)C2` the figure was not above 0.1 µM.

`Cc1cc(-c2cnc3nc[nH]c3c2)cc2c1OCCN(c1nc(CNCC(F)F)nc(C)c1C(C)C)C2` yielded an IC50 not above 0.1 µM. Consider `Cc1cc(-c2cnc3sc(N)nc3c2)cc2c1OCCN(c1ncncc1C(C)C)C2`, for which the IC50 was not above 0.1 µM.

`Cc1cc(-c2cnc3sc(N)nc3c2)cc2c1OCCN(c1nc(C3CCCN3)nc(C)c1C(C)C)C2` (stereo unspecified) displayed an IC50 not above 0.1 µM. `CNc1nc(C)c(C(C)C)c(N2CCOc3c(C)cc(-c4cnc5sc(N)nc5c4)cc3C2)n1` showed an IC50 not above 0.1 µM.

`Cc1cc(-c2cnc3sc(N)nc3c2)cc2c1OCCN(c1nc(CNCCF)nc(C)c1C(C)C)C2` yielded an IC50 not above 0.1 µM.

In the case of `COC(C)c1c(C)nc(C)nc1N1CCOc2c(C)cc(-c3cnc4sc(N)nc4c3)cc2C1` (stereo unspecified), the IC50 was not above 0.1 µM. As for `CCN(CCF)Cc1nc(C)c(C(C)C)c(N2CCOc3c(C)cc(-c4cnc5sc(N)nc5c4)cc3C2)n1`, the figure is not above 0.1 µM; as for `Cc1cc(-c2cnc3sc(N)nc3c2)cc2c1OCCN(c1nc(C(F)(F)F)nc(C)c1C(C)C)C2`, not above 0.1 µM; as for `Cc1nc2ccc(-c3cc(C)c4c(c3)CN(c3nc(CN(C)C)nc(C)c3C(C)C)CCO4)cc2[nH]1`, not above 0.1 µM. As for `COc1cc(-c2cnc3sc(N)nc3c2)cc2c1OCCN(c1nc(CN(C)C)nc(C)c1C(C)C)C2`, the figure is not above 0.1 µM; as for `Cc1cc(-c2cn[nH]c2)cc2c1OCCN(c1nc(N)nc(C)c1C(C)C)C2`, not above 0.1 µM.

Take `Cc1cc(-c2cnc3sc(N)nc3c2)cc2c1OCCN(c1nc(N)nc3c1CC(C)(C)CC3)C2`: the IC50 was not above 0.1 µM. With `Cc1cc(-c2cnc3sc(N)nc3c2)cc2c1OCCN(c1ncc(C#N)c(N)n1)C2` the figure was not above 0.1 µM.

These data come from the Kinase Knowledgebase extract (Sharma et al. 2016).
